Experimental data: patent US20110184018A1, “METHOD FOR TREATING PERIPHERAL NEUROPATHIC PAIN” (LOHOCLA RESEARCH CORPORATION, priority 2005, published 2011)

Target: T1, glycine recognition site of the NMDA receptor complex (Rattus norvegicus, UniProt P35439)
T1 construct: The telencephalon (cerebral cortex, hippocampus, and striatum) was dissected and homogenized; from tissue; host or cells: rat telencephalon membranes (cerebral cortex, hippocampus, striatum), Triton X-100 treated
Assay: [3H]5,7-DCKA binding assay
Settings: rat cortical membranes; none = no displacement at 100 μM
Protocol: General receptor-binding procedures. Male Sprague-Dawley rats were decapitated and their brains removed rapidly. The telencephalon (cerebral cortex, hippocampus, and striatum) was dissected and homogenized in 20 volumes of ice-cold 0.32 M sucrose, 20 mM HEPES-KOH (pH 7.2 at room temperature) containing protease inhibitors ([…], 5 mg/mL antipain, 20 mg/mL soybean trypsin inhibitor, 500 μM benzamidine, […] aprotinin, and 500 μM phenylmethylsulfonyl fluoride) with a motor driven glass-TEFLON® fluorocarbon homogenizer (8-10 strokes at setting 1). The homogenate was centrifuged at 800 g for 10 minutes. The pellet was discarded and the supernatant was centrifuged at 20,000 g for 20 minutes. The resulting pellet was resuspended in 20 volumes of distilled water containing 500 μM benzamidine and centrifuged for 20 minutes at 7500 g. Then the supernatant and buffy coat were centrifuged three times (51,500 g for 20 minutes) in the presence of distilled water containing 500 μM benzamidine. All centrifugation steps were carried out at 4° C. The final pellet was frozen rapidly at −80° C.
On the day of the assay, the pelleted membranes were resuspended in 20 volumes of 50 mM HEPES-KOH buffer, pH 7.4, and incubated for 20 minutes at 37° C. followed by centrifugation (51,500 g for 20 minutes). Membranes were then resuspended in 50 mM HEPES-KOH buffer (pH 7.8) containing 0.08% Triton X-100. After stirring for 30 minutes at 4° C., the membranes were pelleted by centrifugation (100,000 g for 20 minutes). The membranes were then washed twice by resuspension in the buffer appropriate for the binding assay and centrifugation (100,000 g for 20 minutes). The final pellet was suspended in assay buffer. The amount of protein in the final membrane preparation was determined with the bicinchoninic acid method (BCA; Pierce Chemical Co., Rockford, Ill.). The final protein concentration used for our studies was 300 to 600 μg/mL. Receptor-binding protocols described below were adapted from published procedures. For all assays, the samples, all in duplicate or triplicate, were placed into scintillation vials containing 5.5 mL of scintillation liquid (Ultima Gold; Packard Instrument Co., Inc., Meriden, Conn.) and the retained radioactivity was determined by conventional scintillation spectroscopy with a Beckman TA-6000 scintillation counter. Radio-ligands were purchased from DuPont-NEN (Boston, Mass.).
[^3H]5,7-Dichlorokynurenic acid (5,7-DCKA)-binding assay. The glycine recognition site of the NMDA receptor complex was labeled with the competitive antagonist [^3H]5,7-dichlorokynurenic acid (5,7-DCKA). […]
Data Analysis. The data were analyzed with SigmaPlot 5.0 and SigmaStat 2.0 (Jandel Scientific, Corte Madera, Calif.) software. […]

SMILES: O=C(O)c1cc(NC(=O)N(c2ccccc2)c2ccccc2)c2c(Cl)cc(Cl)cc2n1 [DCUKA, N,N-diphenyl-4-ureido-5,7-dichloro-2-carboxyquinoline]
- IC50: 28 µM
